{"source": "patent US20130096170A1", "about": "(priority 2011, published 2013)", "key": {"clinical [1]": {"assay": "clinical", "conditions": "human, in vivo"}, "[2]": {"conditions": "cited from earlier work"}, "clinical [3]": {"assay": "clinical", "conditions": "human, in vivo", "remark": "listed apart in the source"}, "clinical [4]": {"assay": "clinical", "conditions": "human, in vivo", "remark": "listed apart in the source"}, "[5]": {"conditions": "human, in vivo"}, "[6]": {"system": "pediatric subjects 12 to <24 months", "conditions": "in vivo"}, "[7]": {"conditions": "for CL, Predicted Typical Value / Volume of Distribution, Predicted Typical Value / Weight-Adjusted CL, Predicted Typical Value / Weight-Adjusted V, Predicted Typical Value: model-predicted"}, "[8]": {"conditions": "human, in vivo", "remark": "listed apart in the source"}, "clinical [9]": {"assay": "clinical", "conditions": "human, in vivo", "remark": "listed apart in the source"}, "[10]": {"conditions": "final population PK model, Examples 5, 3, 1 and 7"}}, "note": "Like-named read-outs stand apart in the source and are kept apart here."}
{"smiles": "Cc1cccc([C@H](C)c2cnc[nH]2)c1C", "note": "[dexmedetomidine]", "values": [{"measurement": "Tmax", "setting": "clinical [1]; after the start of the maintenance infusion", "value": 40.8, "unit": "min"}, {"measurement": "Tmax", "setting": "clinical [1]; before the end of the loading dose", "value": "~4.8", "unit": "min"}, {"measurement": "clearance", "setting": "clinical [1]; clearance", "value": "~95", "unit": "mL/min"}, {"measurement": "half-life", "setting": "clinical [1]; half-life", "value": "~120", "unit": "min"}, {"measurement": "half-life", "setting": "clinical [1]; t1/2, Mean", "value": 117, "unit": "min"}, {"measurement": "clearance", "setting": "clinical [1]; weight adjusted CL", "value": "~10", "unit": "mL/min/kg"}, {"measurement": "Vd", "setting": "clinical [1]; weight adjusted Vd", "value": "~1.6", "unit": "L/kg"}, {"measurement": "pKa", "setting": "[2]", "value": 7}, {"measurement": "solubility in water", "setting": "[2]", "value": "freely soluble in water"}, {"measurement": "pH of the isotonic solution", "setting": "[2]; study drug as supplied", "value": 4.5}, {"measurement": "clearance", "setting": "clinical [3]; CL, Population Mean", "value": 308, "unit": "mL/min"}, {"measurement": "clearance", "setting": "clinical [3]; CL, model value", "value": 142, "unit": "mL/min"}, {"measurement": "clearance", "setting": "clinical [3]; Weight-Adjusted CL, Geo. Mean of individual Bayesian estimates", "value": 16.5, "unit": "mL/min/kg"}, {"measurement": "clearance", "setting": "clinical [3]; Weight-Adjusted CL, Geometric Mean", "value": 16.5, "unit": "mL/min/kg"}, {"measurement": "half-life", "setting": "clinical [3]; terminal elimination (β) half-life", "value": 96, "unit": "min"}, {"measurement": "clearance", "setting": "clinical [4]; 0.05 ug/kg, CLw (clearance)", "value": 6.83, "unit": "mL/min/kg"}, {"measurement": "AUC(0-t)", "setting": "clinical [4]; AUC (0-Last)", "value": 0.708, "unit": "ng·h/mL"}, {"measurement": "clearance", "setting": "clinical [4]; CLw (weight adjusted clearance)", "value": 4.83, "unit": "mL/min/kg"}, {"measurement": "Vd", "setting": "clinical [4]; Vss", "value": 6.25, "unit": "L"}, {"measurement": "half-life", "setting": "clinical [4]; elimination t1/2", "value": 286, "unit": "min"}, {"measurement": "half-life", "setting": "clinical [4]; t1/2", "value": 499, "unit": "min"}, {"measurement": "t1/2, Mean", "setting": "[5]", "value": 2.260, "unit": "h"}, {"measurement": "subjects with treatment-emergent adverse events", "setting": "[6]; human", "value": 20.0, "unit": "%"}, {"measurement": "safety and tolerability", "setting": "[6]", "value": "safe and well tolerated"}, {"measurement": "Magnitude of Interindividual Variability in Vc, final estimate", "setting": "[7]; final population PK model", "value": 53.76, "unit": "% CV"}, {"measurement": "Exponent for power function effect of age on Q (population mean)", "setting": "[7]; [10]", "value": "−0.342"}, {"measurement": "Exponent for power function effect of age on Vp (population mean)", "setting": "[7]; [10]", "value": "−0.280"}, {"measurement": "Inter-compartmental CL (Q) (population mean)", "setting": "[7]; [10]", "value": 63.5, "unit": "L/h"}, {"measurement": "Vc, volume of the central compartment (population mean)", "setting": "[7]; [10]", "value": 8.49, "unit": "L"}, {"measurement": "Vp, volume of the peripheral compartment (population mean)", "setting": "[7]; [10]", "value": 14.7, "unit": "L"}, {"measurement": "Magnitude of Interindividual Variability in CL, final estimate", "setting": "[7]; final population PK model, cell spans CL rows", "value": 37.01, "unit": "% CV"}, {"measurement": "Magnitude of Interindividual Variability in Q, final estimate", "setting": "[7]; final population PK model, cell spans Q rows", "value": 161.25, "unit": "% CV"}, {"measurement": "Magnitude of Interindividual Variability in Vp, final estimate", "setting": "[7]; final population PK model, cell spans Vp rows", "value": 51.19, "unit": "% CV"}, {"measurement": "CL, Predicted Typical Value", "setting": "[7]; 1 month-<6 months", "value": 7.51, "unit": "L/h"}, {"measurement": "Volume of Distribution, Predicted Typical Value", "setting": "[7]; 1 month-<6 months", "value": 18.75, "unit": "L"}, {"measurement": "Weight-Adjusted CL, Predicted Typical Value", "setting": "[7]; 1 month-<6 months", "value": 1.254, "unit": "L/h/kg"}, {"measurement": "Weight-Adjusted V, Predicted Typical Value", "setting": "[7]; 1 month-<6 months", "value": 3.133, "unit": "L/kg"}, {"measurement": "CL, Predicted Typical Value", "setting": "[7]; 2 y-<6 y", "value": 14.01, "unit": "L/h"}, {"measurement": "Volume of Distribution, Predicted Typical Value", "setting": "[7]; 2 y-<6 y", "value": 28.09, "unit": "L"}, {"measurement": "Weight-Adjusted CL, Predicted Typical Value", "setting": "[7]; 2 y-<6 y", "value": 1.019, "unit": "L/h/kg"}, {"measurement": "Weight-Adjusted V, Predicted Typical Value", "setting": "[7]; 2 y-<6 y", "value": 2.043, "unit": "L/kg"}, {"measurement": "CL, Predicted Typical Value", "setting": "[7]; 6 months-<12 months", "value": 8.69, "unit": "L/h"}, {"measurement": "Volume of Distribution, Predicted Typical Value", "setting": "[7]; 6 months-<12 months", "value": 19.95, "unit": "L"}, {"measurement": "Weight-Adjusted CL, Predicted Typical Value", "setting": "[7]; 6 months-<12 months", "value": 1.195, "unit": "L/h/kg"}, {"measurement": "Weight-Adjusted V, Predicted Typical Value", "setting": "[7]; 6 months-<12 months", "value": 2.742, "unit": "L/kg"}, {"measurement": "CL, Predicted Typical Value", "setting": "[7]; 6 y-<17 y", "value": 25.27, "unit": "L/h"}, {"measurement": "Volume of Distribution, Predicted Typical Value", "setting": "[7]; 6 y-<17 y", "value": 52.97, "unit": "L"}, {"measurement": "Weight-Adjusted CL, Predicted Typical Value", "setting": "[7]; 6 y-<17 y", "value": 0.837, "unit": "L/h/kg"}, {"measurement": "Weight-Adjusted V, Predicted Typical Value", "setting": "[7]; 6 y-<17 y", "value": 1.754, "unit": "L/kg"}, {"measurement": "CL, Predicted Typical Value", "setting": "[7]; 12 months-<24 months", "value": 11.12, "unit": "L/h"}, {"measurement": "Volume of Distribution, Predicted Typical Value", "setting": "[7]; 12 months-<24 months", "value": 23.85, "unit": "L"}, {"measurement": "Weight-Adjusted CL, Predicted Typical Value", "setting": "[7]; 12 months-<24 months", "value": 1.101, "unit": "L/h/kg"}, {"measurement": "Weight-Adjusted V, Predicted Typical Value", "setting": "[7]; 12 months-<24 months", "value": 2.361, "unit": "L/kg"}, {"measurement": "CL, Predicted Typical Value", "setting": "[7]; 28 weeks GA-<1 month", "value": 2.69, "unit": "L/h"}, {"measurement": "Volume of Distribution, Predicted Typical Value", "setting": "[7]; 28 weeks GA-<1 month", "value": 16.21, "unit": "L"}, {"measurement": "Weight-Adjusted CL, Predicted Typical Value", "setting": "[7]; 28 weeks GA-<1 month", "value": 0.933, "unit": "L/h/kg"}, {"measurement": "Weight-Adjusted V, Predicted Typical Value", "setting": "[7]; 28 weeks GA-<1 month", "value": 5.618, "unit": "L/kg"}, {"measurement": "AUC (0-Infinity)Dose", "setting": "[8]", "value": "2102.55 (n = 2) (pg/mL)hr/μg"}, {"measurement": "AUC (0-Last)", "setting": "[8]", "value": "813.26 (pg/mL)hr"}, {"measurement": "Vdw", "setting": "[8]", "value": "3.47 (n = 2) L/kg"}, {"measurement": "dose-adjusted AUC (0-Infinity), additional cohort versus age group II", "setting": "[8]", "value": 4.6, "unit": "times higher"}, {"measurement": "t1/2", "setting": "[8]", "value": 8, "unit": "h"}, {"measurement": "clearance", "setting": "clinical [9]; Cl Mean", "value": 171, "unit": "mL/min"}, {"measurement": "clearance", "setting": "clinical [9]; Cl Median", "value": 162, "unit": "mL/min"}, {"measurement": "Vd", "setting": "clinical [9]; Vd Mean", "value": 30.5, "unit": "L"}, {"measurement": "Vd", "setting": "clinical [9]; Vd Median", "value": 29.1, "unit": "L"}, {"measurement": "half-life", "setting": "clinical [9]; apparent (mean) t1/2", "value": 140, "unit": "min"}]}
